This note sets out measurements from patent publication EP0705277B1, “PROSTAGLANDIN RECEPTOR EP3 AND DNA ENCODING IT” (MERCK FROSST CANADA INC., priority 1993, dated 1995).

The target of one assay is T1, hEP1 (Homo sapiens, UniProt P34995).
T1 sequence (P34995 1-402): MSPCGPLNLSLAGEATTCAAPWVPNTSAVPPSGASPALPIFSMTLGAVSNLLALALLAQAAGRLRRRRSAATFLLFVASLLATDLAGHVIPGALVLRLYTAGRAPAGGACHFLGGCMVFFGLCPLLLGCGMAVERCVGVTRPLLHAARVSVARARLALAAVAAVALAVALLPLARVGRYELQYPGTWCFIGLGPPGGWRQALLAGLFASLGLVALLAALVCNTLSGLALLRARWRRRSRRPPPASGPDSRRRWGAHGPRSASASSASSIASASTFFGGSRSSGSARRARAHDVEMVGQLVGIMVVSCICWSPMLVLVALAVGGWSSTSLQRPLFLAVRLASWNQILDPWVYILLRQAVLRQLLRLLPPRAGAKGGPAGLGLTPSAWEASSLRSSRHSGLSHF
Description: Binding at the hEP1 subtype (comparison value). Conditions: given for comparison.

The target of assay [1] is T2, hEP3 subtype (hEP3α, hEP3-21 and hEP3-9 isoforms) (Homo sapiens, UniProt P43115).
T2 sequence (P43115 1-390): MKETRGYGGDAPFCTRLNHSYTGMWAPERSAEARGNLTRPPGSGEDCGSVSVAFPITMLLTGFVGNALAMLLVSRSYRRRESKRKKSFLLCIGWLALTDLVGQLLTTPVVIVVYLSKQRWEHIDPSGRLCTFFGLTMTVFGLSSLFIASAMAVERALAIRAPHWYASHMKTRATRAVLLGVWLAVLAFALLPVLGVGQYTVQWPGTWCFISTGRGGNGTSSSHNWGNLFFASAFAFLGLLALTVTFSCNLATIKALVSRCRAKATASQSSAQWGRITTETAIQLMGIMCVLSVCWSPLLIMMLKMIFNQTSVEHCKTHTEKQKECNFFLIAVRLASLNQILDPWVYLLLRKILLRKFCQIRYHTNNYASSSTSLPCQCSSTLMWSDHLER
Description: [3H]PGE2 competition binding, value stated across the three hEP3 isoforms. How it is done:
Mammalian cell transfectants are analyzed for both the levels of EP3 receptor activity and levels of EP3 protein by the following methods. Assessing EP3 receptor activity involves the direct introduction of a labelled ligand to the cells and determining the amount of specific binding of the ligand to the EP3-expressing cells. Binding assays for receptor activity are known in the art (Frey et al., 1993, Eur. J. Pharmacol., 244, pp 239-250).
The three cloned forms of the human prostaglandin E receptor EP3 subtype (hEP3a, hEP3-21 and hEP3-9) which differ in the carboxyl terminus region of the encoded protein were individually subcloned into the pcDNAlamp plasmid (Invitrogen) and transfected into COS-M6 cells using the DEAE-dextran method. The cells were maintained in culture for 72 hours, then harvested and membranes prepared by differential centrifugation (1000 x g for 10 minutes, then 100,000 x g for 30 minutes) following lysis of the cells by nitrogen cavitation. […] Incubations were conducted for 1 hour at room temperature prior to separation of the bound and free radioligand by rapid filtration as previously described (Frey et al., 1993).

For the next assay, the target named is T3, thromboxane receptor (Homo sapiens, UniProt P21731).
T3 construct: One full-length (≈ 2.9 kb) clone contained extensive 5' and 3' noncoding regions; expressed in transfected cells; host or cells: human embryonic kidney 293 cells and membranes
T3 sequence (P21731 1-343): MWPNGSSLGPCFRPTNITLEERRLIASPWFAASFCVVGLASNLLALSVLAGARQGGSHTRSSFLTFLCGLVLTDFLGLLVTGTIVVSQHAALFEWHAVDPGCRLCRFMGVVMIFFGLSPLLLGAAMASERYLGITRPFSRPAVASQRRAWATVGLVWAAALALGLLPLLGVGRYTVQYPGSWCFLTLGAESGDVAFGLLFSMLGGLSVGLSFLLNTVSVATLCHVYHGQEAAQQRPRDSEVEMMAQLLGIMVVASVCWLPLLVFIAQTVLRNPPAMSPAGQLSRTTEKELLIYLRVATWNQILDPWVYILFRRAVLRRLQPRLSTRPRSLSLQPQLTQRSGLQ
Description: SQ-29548 binding to 293 cells and membranes transfected with thromboxane-receptor cDNA. Conditions: human embryonic kidney 293 cells and membranes transfected with thromboxane-receptor cDNA. From the text:
The thromboxane receptor has been expressed in Xenopus oocytes. It can couple with endogenous signal transduction components to elicit a calcium-activated Cl- current recorded by electrophysiological measurement using the procedure described by Hirata, M. et al., (1991), Nature, 349, pp. 617. Binding studies have been performed with COS-1 cell membranes transfected by thromboxane receptor cDNA using the ligand S-145 (Hirata, M. et al., (1991), Nature, 349, pp. 617). […] This level of expression is at least 5-10 times higher than in platelet membranes. On a per-cell basis assuming a 10% transfection efficiency, we estimate ≈ 10^6 binding sites/tranfected cell as compared to ≈ 1300 sites present on a platelet (Hourani, S.M.O, et al., (1991), Pharmacol. Rev., 43, pp. 243).

The target in another assay is T4, hEP3α (Homo sapiens, UniProt P43115).
T4 construct: a 1.9 kb full length human EP3α cDNA clone was plaque-purified; expressed in transfected cells; host or cells: COS-M6 cells (membranes), pcDNAIamp vector
T4 sequence (P43115 1-390): T2 sequence (P43115 1-390)
Description: [3H]PGE2 binding assay, membranes of pcDNAIamp-hEP3α transfected COS-M6 cells. Conditions: for fold less active than PGE2: competition for [3H]PGE2 specific binding, relative to PGE2. How it is done: (§1) Mammalian cell transfectants are analyzed for both the levels of EP3 receptor activity and levels of EP3 protein by the following methods. Assessing EP3 receptor activity involves the direct introduction of a labelled ligand to the cells and determining the amount of specific binding of the ligand to the EP3-expressing cells.
(§2) The three cloned forms of the human prostaglandin E receptor EP3 subtype (hEP3a, hEP3-21 and hEP3-9) which differ in the carboxyl terminus region of the encoded protein were individually subcloned into the pcDNAlamp plasmid (Invitrogen) and transfected into COS-M6 cells using the DEAE-dextran method. The cells were maintained in culture for 72 hours, then harvested and membranes prepared by differential centrifugation (1000 x g for 10 minutes, then 100,000 x g for 30 minutes) following lysis of the cells by nitrogen cavitation.

In the next assay the target is T5, hEP3-9 (Homo sapiens, UniProt P43115).
T5 construct: both a 1.7 kb full length human EP3-21 cDNA clone and a 1.4 kb full length human EP3-9 cDNA clone; expressed in transfected cells; host or cells: COS-M6 cells (membranes), pcDNAIamp vector
T5 sequence (P43115 1-365 isoform P43115-3): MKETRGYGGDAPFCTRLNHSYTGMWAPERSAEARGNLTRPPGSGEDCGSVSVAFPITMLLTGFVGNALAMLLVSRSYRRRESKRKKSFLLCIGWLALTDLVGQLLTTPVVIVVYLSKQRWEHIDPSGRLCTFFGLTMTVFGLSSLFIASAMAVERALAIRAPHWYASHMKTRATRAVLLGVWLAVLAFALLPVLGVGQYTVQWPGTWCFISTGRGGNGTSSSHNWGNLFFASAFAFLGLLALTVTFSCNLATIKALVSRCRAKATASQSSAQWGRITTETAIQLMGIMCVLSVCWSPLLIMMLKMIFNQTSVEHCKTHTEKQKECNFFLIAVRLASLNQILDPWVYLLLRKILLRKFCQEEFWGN
Description: [3H]PGE2 binding assay, membranes of hEP3-9 transfected COS-M6 cells. Particulars: for fold less active than PGE2: competition for [3H]PGE2 specific binding, relative to PGE2. How it is done:
as §1, §2

For another assay, the target named is T6, hEP3-21 (Homo sapiens, UniProt P43115).
T6 construct: both a 1.7 kb full length human EP3-21 cDNA clone and a 1.4 kb full length human EP3-9 cDNA clone; expressed in transfected cells; host or cells: COS-M6 cells (membranes), pcDNAIamp vector
T6 sequence (P43115 1-388 isoform P43115-2): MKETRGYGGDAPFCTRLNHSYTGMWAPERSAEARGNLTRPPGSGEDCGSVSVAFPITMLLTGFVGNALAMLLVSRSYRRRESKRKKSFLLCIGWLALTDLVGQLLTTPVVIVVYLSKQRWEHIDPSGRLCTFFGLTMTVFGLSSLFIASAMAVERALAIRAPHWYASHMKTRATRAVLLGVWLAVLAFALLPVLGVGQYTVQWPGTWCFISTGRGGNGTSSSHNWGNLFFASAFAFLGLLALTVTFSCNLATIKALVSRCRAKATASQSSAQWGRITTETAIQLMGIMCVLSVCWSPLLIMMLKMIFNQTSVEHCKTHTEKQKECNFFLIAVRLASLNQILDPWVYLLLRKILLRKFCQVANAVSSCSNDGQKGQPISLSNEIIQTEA
Description: [3H]PGE2 binding assay, membranes of pcDNAIamp-hEP3-21 transfected COS-M6 cells. Conditions: for fold less active than PGE2: competition for [3H]PGE2 specific binding, relative to PGE2. How it is done:
as §1, §2

SMILES strings stand for the structures.

A word on the IC50: it is the midpoint of a concentration-inhibition curve. A lower IC50 goes with inhibition by little substance. Regarding `CC(C)Oc1ccc2c(=O)c3cc(C(=O)O)ccc3oc2c1` [AH6809], the IC50 is 500 nM at hEP1 and 2000 to 7000 nM in assay [1]. Further, in assay [1] (hEP3 versus hEP1, in general), the “fold less active at the hEP3 subtype as compared with the hEP1 subtype” value is 5-10 fold.
For `O=C(O)CCC/C=C\C[C@@H]1[C@H](CNNC(=O)Nc2ccccc2)[C@H]2CC[C@@H]1O2` [SQ-29548], the binding result on thromboxane receptor is “high affinity binding”.
Regarding `CCCCC[C@H](O)/C=C/[C@H]1[C@H](O)CC(=O)[C@@H]1CCCCCCC(=O)O` [PGE1], the half-inhibitory concentration (IC50) on hEP3α, on hEP3-9 and at hEP3-21 was around 1 nM each time.
As for `CCCCC[C@H](O)/C=C/[C@@H]1[C@@H](C/C=C\CCCC(=O)O)[C@@H](O)C[C@H]1O` [PGF2α], the entries for the “fold less active than PGE2” value at hEP3α, on hEP3-9 and at hEP3-21 were “approximately 200 fold”, around 65 fold and “approximately 200 fold”, respectively.
Turning to `CCCCC(C)(O)C/C=C/[C@H]1[C@H](O)CC(=O)[C@@H]1CCCCCCC(=O)OC` (mixture of isomers) [misoprostol], the IC50 in assay [1] lay in the range of 300 to 1200 nM.
For the molecule `CCCCC[C@H](O)/C=C/[C@H]1C(=O)C[C@H](O)[C@@H]1C/C=C\CCCC(=O)O` [PGD2], the “fold less active than PGE2” value is around 2000 fold at hEP3α, around 500 fold on hEP3-9 and around 2000 fold on hEP3-21.
